Results published in patent US10857180B2, “Pharmaceutical composition for improving health, cure abnormalities and degenerative disease, achieve anti-aging effect of therapy and therapeutic effect on mammals and method thereof” (priority 2014, dated 2020).
Like-named read-outs stand apart in the source and are kept apart here.

Legend:
A-549 cell line = experiment: Scratch assay, A-549 cells; details: for time of restoration of the cell monolayer: dose not stated, 24 hours in the control; for restoration of the cell monolayer after 72 hours: ^64Zn 20 and 30 mcg/ml, ^39K 2 mg/ml, control restored after 24 hours
[1] = test system: Burkitt lymphoma (Namalwa line) cells; experiment: Immunocytochemical analysis (H-Score) of Namalwa cells; format: cell-based, human; details: for amount of N-cadherin-positive cells: exception ^39K 2 mg/ml and ^24Mg 2 mg/ml
Excerpt: (§1) However, articles about an important role of EMT in the study of lymphomas and leukemias as well have started coming out recently, which is an interesting stage in the research into the tumor process as a whole, since these tumors radically differ from “usual solid neoplasias” in their histogenesis and, accordingly, in their phenotypic characteristics. Thus, such comprehensive research into adhesion proteins and cell cytoskeleton in the tumor cells of Burkitt lymphoma and acute promyelocyte leukemia after the action of the group of components under study is a relevant and contemporary attempt of a deeper analysis of the modification of a cell phenotype of tumor cells in order to assess changes in the degree of their malignancy. Materials and methods for leukemia cell lines HL-60 and Namalva and cell culture conditions will now be described. […] The first plate was for coloring cells with trypan blue and the second one was for the MTT assay.
Initial concentrations of the components.
After preparation of the corresponding concentrations of the components, they were introduced into appropriate wells of the plate in which HL-60 or Namalva cell were in complete medium. The volume of the culture medium with cells was 100 mcl per well and the concentration of cells in the suspension was 3×10^5 cells/ml (3×10^6/plate). After the components were placed into the wells, the final concentration (component+cells in the suspension) became smaller and corresponded to the values given in the Table of Concentration Characteristics.
After the incubation the medium was removed from the wells and the formed tetraformazan crystals were dissolved in 50 mcl of dimethylsulphoxide (Applichem, Germany). The results were fixed using a multi-well spectrophotometer with an excitation wave length of 540 nm. The percent of inhibition of cell viability was calculated using the following formula: IR=(1−A 540 (experiment)/A540 (control))×100%. In carrying out the immunocytochemical (ICC) assay, cells on microscope glasses (cytospin preparations) were fixed in the solution (methanol+acetone (1:1)) for 2 hours at t−20° C. and then incubated with a 1% solution of bovine serum albumin (BSA) for 20 minutes.
Then such monoclonal antibodies as CD44, N-cadherin, ICAM and IgM were applied for the period of time specified in the manufacturer's instructions (30 to 60 minute time intervals), after which Poly Vue imaging system conjugated with peroxidase was used and the enzyme activity was detected using diaminobenzidine (ThermoScientific) as a substrate. After the immunocytochemical reaction, the preparations were rinsed with water and counterstained with hematoxylin and eosin for 15 to 30 seconds. The results were analyzed by a quantitative estimation of cells with the marker expression (increased brown color of cells corresponded to a higher degree of expression of the marker) using a light microscope and assessed using the classical H-Score method: S=1×A+2×B+3×C, where S is the H-Score index the values of which are within the scope of 0 (protein is not detectable) to 300 (high-level expression in 100% of the cells), A is a percentage of weakly stained cells, B is the percentage of moderately stained cells, and C the percentage of strongly stained cells.

HL-60 cells = experiment: Morphological and growth characteristics of HL-60 cells; format: cell-based, human; details: sulfates, living cell culture
Excerpt: as §1
After preparation of the corresponding concentrations of the components, they were introduced into appropriate wells of the plate in which HL-60 or Namalva cell were in complete medium. The volume of the culture medium with cells was 100 mcl per well and the concentration of cells in the suspension was 3×10^5 cells/ml (3×10^6/plate). […]

[2] = test system: stem cells derived from rat fibroblasts (RF); format: cell-based
[3] = test system: normal rat kidney cells (NRK cell line); experiment: Effect on normal rat kidney cells versus Doxorubicin
Excerpt: An immortalized cell line is a stable, capable of unlimited proliferation cell line that consists of cells with […] in culture.

[4] = test system: human breast cancer (MCF-7 line) cells; experiment: Immunocytochemistry (H-Score) of MCF-7 cells; format: cell-based
Description: (§2) When making the immunocytochemistry (ICC) assay, cells on microscope glasses (cytospin preparations) were fixed in the solution (methanol+acetone 1:1) for 2 hours at t 20° C. and incubated with 1% solution of bovine serum albumin (BSA) for 20 minutes. Then the monoclonal antibodies-CD44 (Diagnostic BioSystems), E-cadherin (ThermoScientific), N-cadherin (NeoMarker, BioLegend), SLUG (GeneTex)—were applied for the time period specified by the manufacturer (30 to 60 minutes), after which the Poly Vue imaging system conjugated with peroxidase was used and the enzyme activity was detected using diaminobenzidine (ThermoScientific) as a substrate. After the immunocytochemical reaction the preparations were washed with water and counterstained with hematoxylin-eosin (for 15 to 30 seconds).
(§3) The results were analyzed by counting cells with expression (brown colored cells) using a light microscope, and were assessed using the classical H-Score method: S=1×A+2×B+3×C, where S is the H-Score index giving a range of 0 (protein is not detected) to 300 (high-level expression in 100% of the cells); A is the percentage of weakly staining cells, B is the percentage of moderately staining cells and C is the percentage of strongly staining cells.

[5] = test system: human colon adenocarcinoma (COLO 205 line) cells; experiment: Immunocytochemistry (H-Score) of COLO 205 cells; format: cell-based
Description: as §2, §3

[6] = test system: renal cell carcinoma (PA) cells; experiment: Immunocytochemistry (H-Score) of PA cells; format: cell-based, rat
Description: When making the immunocytochemistry (ICC) assay, cells on microscope glasses (cytospin preparations) were fixed in the solution (methanol+acetone 1:1) for 2 hours at t 20° C. and incubated with 1% solution of bovine serum albumin (BSA) for 20 minutes. Then the monoclonal antibodies—CD44 (Diagnostic BioSystems), E-cadherin (ThermoScientific), N-cadherin (NeoMarker, BioLegend)—were applied for 60 minutes, after which the Poly Vue imaging system conjugated with peroxidase was used and the enzyme activity was detected using diaminobenzidine (ThermoScientific) as a substrate.
After the immunocytochemical reaction the preparations were washed with water and counterstained with hematoxylin-eosin (for 15-30 seconds). The results were analyzed by counting cells with expression (brown colored cells), using a light microscope and were assessed using the classical H-Score method: S=1×A+2×B+3×C, where S is the H-Score index giving a range of 0 (protein is not detected) to 300 (high-level expression in 100% of the cells); A is the percentage of weakly stained cells, B is the percentage of moderately stained cells and C is the percentage of strongly stained cells.

[7] = dose not stated, 72 hours in the control

Row | Structure (SMILES) | time of restoration of the cell monolayer (A-549 cell line) [h] | IgM marker expression level [1] | amount of N-cadherin-positive cells [1] | morphological and growth characteristics (adhesion) (HL-60 cells) | effect on functional properties of NRK cells [3] | number of Slug-positive cells [4] | number of E-cadherin-positive cells [5] | slug transcription factor expression [5] | restoration of the cell monolayer after 72 hours (A-549 cell line) | expression of CD44 marker [1] | time of restoration of the cell monolayer [2, 7] [h] | also measured
1 | O=S(=O)([O-])[O-].[24Mg+2] [^24Mg] | 72 | decrease in the expression level | in most cases increased | significant enhancement of adhesion of cells to the substrate | did not affect functional properties | insignificantly influenced | increasing the number | in the cytoplasm and in the nucleus | – | – | – | time of restoration of the cell monolayer ([2]; ^24Mg 2 mg/ml): 72 h; time of restoration of the cell monolayer ([2]; ^24Mg 3 mg/ml): 65 to 72 h; time of restoration of the cell monolayer ([2]; ^24Mg 4 mg/ml): 82 h; number of CD44-positive cells ([6]; ^24Mg 2 mg/ml): did not differ from that of control cells; number of CD44-positive cells ([6]; ^24Mg 3.5 mg/ml): increase significantly; number of E-cadherin-positive cells ([6]; ^24Mg in 2 doses): increase in the number; number of cells expressing N-cadherin ([6]; ^24Mg in 2 doses): slight increase
2 | [39K+].[Cl-] [^39K] | 72 | decrease in the expression level | in most cases increased | – | – | insignificantly influenced | significantly increased | increased its expression in the cytoplasm | incomplete | significant inhibition | 72 | time of restoration of the cell monolayer ([2]; ^39K 1 mg/ml): 72 h; time of restoration of the cell monolayer ([2]; ^39K 2 mg/ml): 96 h; E-cadherin, H-Score scale ([5]; 87 in the control): 184; number of E-cadherin-positive cells ([6]; ^39K 0.4 mg/ml): significantly increased; number of E-cadherin-positive cells ([6]; ^39K 2 mg/ml): significantly reduced; number of CD44-positive cells ([6]; ^39K both doses): significantly increased; N-cadherin ([6]; ^39K dose D2): almost complete inhibition
3 | O=S(=O)([O-])[O-].[64Zn+2] [^64Zn] | 72 | decrease in the expression level | in most cases increased | significant enhancement of adhesion of cells to the substrate | did not affect functional properties | insignificantly influenced | significantly increased | in the cytoplasm and in the nucleus | incomplete | significant inhibition | 72 | number of ICAM-positive cells, H-Score method ([1]; ^64Zn as sulfate 5 mcg/ml): 210; CD44 marker positive cells, H-Score scale ([6]; 3.2 mcg/ml): 126 units; N-cadherin positive cells ([6]; ^64Zn 0.128 mcg/ml): slight increase; number of E-cadherin-positive cells ([6]; ^64Zn 0.128 mcg/ml): increased number; N-cadherin-positive cells ([6]; ^64Zn 3.2 mcg/ml): substantial increase; number of E-cadherin-positive cells ([6]; ^64Zn 3.2 mcg/ml): decrease in the number
